Experimental findings from the NIST ThermoML archive (doi:10.1021/je200609g) are described below.

Each structure is given as a SMILES string. Numbers after ± are expanded uncertainties.

The conditions of the data set: 101.33 kPa, Liquid; for speed of sound: Sing-around technique in a fixed-path interferometer; for mass density: Vibrating tube method.

`CCn1cc[n+](C)c1.O=S(=O)([O-])C(F)(F)F` [1-ethyl-3-methylimidazolium trifluoromethanesulfonate]: the speed of sound (278.15 K) was 1482.2 ± 2.1 m/s; the speed of sound (288.15 K) is 1458.3 ± 2.1 m/s; the speed of sound (298.15 K) turned out to be 1435.6 ± 2.1 m/s; the speed of sound (308.15 K) amounted to 1413.2 ± 2.1 m/s; the speed of sound (318.15 K) was determined as 1391.3 ± 2.1 m/s; the speed of sound (328.15 K) turned out to be 1369.7 ± 2.1 m/s. Also, the mass density is listed as 1400.51 ± 1.8 kg/m3 (278.15 K); 1392.02 ± 1.8 kg/m3 (288.15 K); 1383.58 ± 1.7 kg/m3 (298.15 K); 1375.19 ± 1.7 kg/m3 (308.15 K); 1366.86 ± 1.7 kg/m3 (318.15 K); 1358.59 ± 1.7 kg/m3 (328.15 K).
For `CC(C)O` [propan-2-ol], the speed of sound (278.15 K) came to 1208.5 ± 0.74 m/s; the speed of sound (288.15 K) is 1173.1 ± 0.73 m/s; the speed of sound (298.15 K) worked out at 1138.2 ± 0.72 m/s; the speed of sound (308.15 K) was found to be 1103.2 ± 0.71 m/s; the speed of sound (318.15 K) came to 1068.1 ± 0.7 m/s; the speed of sound (328.15 K) came to 1032.6 ± 0.69 m/s. Further, the mass density is given as 797.34 ± 0.12 kg/m3 (278.15 K); 789.22 ± 0.13 kg/m3 (288.15 K); 780.89 ± 0.13 kg/m3 (298.15 K); 772.28 ± 0.13 kg/m3 (308.15 K); 763.32 ± 0.14 kg/m3 (318.15 K); 753.95 ± 0.14 kg/m3 (328.15 K).
Regarding `C1CCOC1` [tetrahydrofuran], the speed of sound by setting is: (278.15 K) 1375 ± 0.87 m/s; (288.15 K) 1325.8 ± 0.85 m/s; (298.15 K) 1277.4 ± 0.83 m/s; (308.15 K) 1229.6 ± 0.81 m/s; (318.15 K) 1182.4 ± 0.8 m/s. Besides, the mass density was found to be 903.71 ± 0.09 kg/m3 (278.15 K); 892.92 ± 0.09 kg/m3 (288.15 K); 882.02 ± 0.1 kg/m3 (298.15 K); 871 ± 0.1 kg/m3 (308.15 K); 859.84 ± 0.11 kg/m3 (318.15 K).

A word on the speed of sound: it is the propagation velocity of pressure waves in the medium. One may read the mass density as the mass of a sample divided by its volume.
